These results are taken from patent EP2818472A1, “Imidazo[4,5-c]pyridine and pyrrolo[3,2-c]pyridine compounds as G-protein-coupled receptor kinase 5 (GRK5) modulators” (Max-Planck-Gesellschaft zur Förderung der Wissenschaften …, priority 2013, dated 2014).

The experiment has as its system beta-TC6 cells. Nature of the experiment: Insulin HTRF assay (relative activity Ar) in beta-TC6 cells. The class given is cell-based, mouse. The settings on record: Mus musculus, Beta-TC6, 4 h, insulin HTRF, supernatant of beta-TC6 cells, incubation with test compound at 37°C for 2, 3, 4h; read-out: Ar (relative activity). The essentials:
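beta-TC6 cells (15k/well, seeded 24 or 48 h) washed, then exposed to compound in induction buffer (0.5% DMSO final) for 2, 3 or 4 h at 37°C.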
On the technique in general: In TR-FRET formats the signal depends on donor and acceptor labels being close together.
Regarding `CNc1nc2cnc(Nc3ccc(NC(C)=O)cc3)cc2n1-c1cccc(C(F)(F)F)c1` [Compound 540, N-[4-[[2-(methylamino)-1-[3-(trifluoromethyl)phenyl]imidazo[4,5-c]pyridin-6-yl]amino]phenyl]acetamide], the Emax lay in the range of 30 to 50%.

As to `CNc1nc2cnc(-c3ccc(O)c(OC)c3)cc2n1Cc1ccc(OC)c(OC)c1` [Compound 879, 4-[1-[(3,4-dimethoxyphenyl)methyl]-2-(methylamino)imidazo[4,5-c]pyridin-6-yl]-2-methoxy-phenol], the Emax was in the range of 30 to 50%.

On to `CNc1nc2cnc(Nc3cc(OC)c(OC)c(OC)c3)cc2n1CC1CC1` [Compound 567, 1-(cyclopropylmethyl)-N2-methyl-N6-(3,4,5-trimethoxyphenyl)imidazo[4,5-c]pyridine-2,6-diamine], for which the Emax lay in the range of 50 to 100%.

Consider `COc1ccc(Nc2cc3c(cn2)nc(Nc2ccccc2)n3C)cc1OC` [Compound 632, N6-(3,4-dimethoxyphenyl)-1-methyl-N2-phenyl-imidazo[4,5-c]pyridine-2,6-diamine], for which the Emax was 50 to 100%.

On to `Cn1c(-c2ccccc2)cc2c(Nc3ccc(C(N)=O)cc3)nccc21` [Compound 325, 4-[(1-methyl-2-phenyl-pyrrolo[3,2-c]pyridin-4-yl)amino]benzamide], for which the Emax is 30 to 50%.

`CC(=O)Nc1cccc(Nc2nccc3[nH]c(-c4cccc(F)c4)cc23)c1` [Compound 206, N-[3-[[2-(3-fluorophenyl)-1H-pyrrolo[3,2-c]pyridin-4-yl]amino]phenyl]acetamide]: the Emax was in the range of 50 to 100%.

For the molecule `CNc1nc2cnc(Nc3ccc(OC)c(OC)c3)cc2n1CCN1CCOCC1` [Compound 555, N6-(3,4-dimethoxyphenyl)-N2-methyl-1-(2-morpholinoethyl)imidazo[4,5-c]pyridine-2,6-diamine], the Emax was in the range of 30 to 50%.

As for `COc1ccc(Nc2nccc3[nH]c(-c4ccncc4)nc23)cc1O` [Compound 432, 2-methoxy-5-[[2-(4-pyridyl)-1H-imidazo[4,5-c]pyridin-4-yl]amino]phenol], the Emax was > 100%.

As for `Fc1cccc(Nc2cc3[nH]c(-c4cn[nH]c4)cc3cn2)c1` [Compound 119, N-(3-fluorophenyl)-2-(1H-pyrazol-4-yl)-1H-pyrrolo[3,2-c]pyridin-6-amine], the Emax lay within 50 to 100%.

`COc1ccc(Cn2cnc3cnc(-c4cc(OC)c(OC)c(OC)c4)cc32)cc1OC` [Compound 738, 1-[(3,4-dimethoxyphenyl)methyl]-6-(3,4,5-trimethoxyphenyl)imidazo[4,5-c]pyridine]: the Emax lay within 30 to 50%.

On to `Cn1c(NCc2ccccc2F)nc2cnc(-c3ccc(CO)cc3)cc21` [Compound 655, [4-[2-[(2-fluorophenyl)methylamino]-1-methyl-imidazo[4,5-c]pyridin-6-yl]phenyl]methanol], for which the Emax was 50 to 100%.

`CNc1nc2cnc(Nc3cccc(O)c3)cc2n1-c1cccc(C(F)(F)F)c1` [Compound 550, 3-[[2-(methylamino)-1-[3-(trifluoromethyl)phenyl]imidazo[4,5-c]pyridin-6-yl]amino]phenol]: the Emax is 30 to 50%.

With `CC(=O)N(C)c1cccc(-c2cc3cnc(Nc4ccc(N5CCN(C)CC5)cc4)cc3n2C)c1` [Compound 164, N-methyl-N-[3-[1-methyl-6-[4-(4-methylpiperazin-1-yl)anilino]pyrrolo[3,2-c]pyridin-2-yl]phenyl]acetamide], the Emax was 50 to 100%.

Consider `COc1cncc(-c2cc3[nH]c(NCC4CCCO4)nc3cn2)c1` (centres unmarked) [Compound 881, 6-(5-methoxy-3-pyridyl)-N-(tetrahydrofuran-2-ylmethyl)-1H-imidazo[4,5-c]pyridin-2-amine], for which the Emax lay within 0 to 30%.

As for `CS(=O)(=O)c1ccc(Nc2nccc3[nH]c(-c4ccccc4)cc23)cc1` [Compound 324, N-(4-methylsulfonylphenyl)-2-phenyl-1H-pyrrolo[3,2-c]pyridin-4-amine], the Emax was in the range of 50 to 100%.

For `Fc1cccc(-c2cc3c(Nc4ccc5c(c4)OCO5)nccc3[nH]2)c1` [Compound 203, N-(1,3-benzodioxol-5-yl)-2-(3-fluorophenyl)-1H-pyrrolo[3,2-c]pyridin-4-amine], the Emax was in the range of 30 to 50%.

Turning to `CNc1nc2cnc(Nc3cccc(Cl)c3)cc2n1Cc1ccc(OC)c(OC)c1` [Compound 666, N6-(3-chlorophenyl)-1-[(3,4-dimethoxyphenyl)methyl]-N2-methyl-imidazo[4,5-c]pyridine-2,6-diamine], the Emax is 30 to 50%.

Regarding `CN(C)c1cccc(-c2cc3c(cn2)nc(NCC2CC2)n3C)c1` [Compound 828, N-(cyclopropylmethyl)-6-[3-(dimethylamino)phenyl]-1-methyl-imidazo[4,5-c]pyridin-2-amine], the Emax was in the range of 30 to 50%.

Turning to `COc1ccc(Nc2cc3[nH]c(-c4cn[nH]c4)cc3cn2)cc1OC` [Compound 111, N-(3,4-dimethoxyphenyl)-2-(1H-pyrazol-4-yl)-1H-pyrrolo[3,2-c]pyridin-6-amine], the Emax was > 100%.

Turning to `CNc1nc2cnc(-c3cccc(N(C)C)c3)cc2n1-c1ccccc1` [Compound 783, 6-[3-(dimethylamino)phenyl]-N-methyl-1-phenyl-imidazo[4,5-c]pyridin-2-amine], the Emax was 0 to 30%.

With `CNc1nc2cnc(Nc3ccc4c(c3)OCO4)cc2n1CCOC` [Compound 497, N6-(1,3-benzodioxol-5-yl)-1-(2-methoxyethyl)-N2-methyl-imidazo[4,5-c]pyridine-2,6-diamine], the Emax was in the range of 50 to 100%.

Turning to `CNc1nc2cnc(-c3cccc(C(=O)NCCN(C)C)c3)cc2n1Cc1ccccc1` [Compound 793, 3-[1-benzyl-2-(methylamino)imidazo[4,5-c]pyridin-6-yl]-N-(2-dimethylaminoethyl)benzamide], the Emax was 0 to 30%.

In the case of `c1cc(Nc2nccc3[nH]c(-c4ccsc4)cc23)ccn1` [Compound 258, N-(4-pyridyl)-2-(3-thienyl)-1H-pyrrolo[3,2-c]pyridin-4-amine], the Emax is > 100%.

As to `COc1cc(Nc2nccc3[nH]c(-c4ccncc4)nc23)cc(OC)c1OC` [Compound 421, 2-(4-pyridyl)-N-(3,4,5-trimethoxyphenyl)-1H-imidazo[4,5-c]pyridin-4-amine], the Emax fell in the range of 50 to 100%.

For `Cn1c(NCC2CC2)nc2cnc(-c3ccsc3)cc21` [Compound 596, N-(cyclopropylmethyl)-1-methyl-6-(3-thienyl)imidazo[4,5-c]pyridin-2-amine], the Emax is 50 to 100%.

Consider `COc1ccc(Nc2nccc3c2cc(-c2ccccc2)n3C)cc1OC` [Compound 326, N-(3,4-dimethoxyphenyl)-1-methyl-2-phenyl-pyrrolo[3,2-c]pyridin-4-amine], for which the Emax is 30 to 50%.

In the case of `Cn1c(-c2ccccc2)cc2c(Nc3ccccn3)nccc21` [Compound 327, 1-methyl-2-phenyl-N-(2-pyridyl)pyrrolo[3,2-c]pyridin-4-amine], the Emax is 50 to 100%.

In the case of `CN(C)c1cccc(Nc2cc3c(cn2)nc(NCc2ccccc2)n3C)c1` [Compound 619, N2-benzyl-N6-[3-(dimethylamino)phenyl]-1-methyl-imidazo[4,5-c]pyridine-2,6-diamine], the Emax lay within 50 to 100%.

Regarding `Cc1cccc(CNc2nc3cnc(-c4ccc(N)nc4)cc3n2C)c1` [Compound 811, 6-(6-amino-3-pyridyl)-1-methyl-N-(m-tolylmethyl)imidazo[4,5-c]pyridin-2-amine], the Emax is 30 to 50%.
